Measured values from ChEMBL document CHEMBL5247592, “Discovery of novel VEGFR-2-PROTAC degraders based on the localization of lysine residues via recruiting VHL for the treatment of gastric cancer” (Eur J Med Chem, 2022).
The source made the active and inactive calls. No cut-off for these calls is given here.

Assays:
HGC-27 [1] = experiment: Induction of cell cycle arrest in human HGC-27 cells assessed as accumulation of cells at G2/M phase incubated for 24 hrs by PI staining based flow cytometric analysis; format: functional; conditions: dose 0.033-3.33 µM
HGC-27 [2] = experiment: Inhibition of cell migration in human HGC-27 cells at 0.033 to 3.33 uM by wound healing assay; format: functional, cell-based; conditions: dose 0.033-3.33 µM, time <= 24.0 hrs, TDE = time-dependent effect
[3] = biological target: T1, von Hippel-Lindau disease tumor suppressor/Vascular endothelial growth factor receptor 2 (Homo sapiens, UniProt P35968+P40337); experiment: PROTAC activity at VHL/VEGFR2 in human HGC-27 cells assessed as reduction in VEGFR2 protein level incubated for 24 hrs by Western blot analysis; format: cell-based
Target sequence in this assay (P35968 whole entry): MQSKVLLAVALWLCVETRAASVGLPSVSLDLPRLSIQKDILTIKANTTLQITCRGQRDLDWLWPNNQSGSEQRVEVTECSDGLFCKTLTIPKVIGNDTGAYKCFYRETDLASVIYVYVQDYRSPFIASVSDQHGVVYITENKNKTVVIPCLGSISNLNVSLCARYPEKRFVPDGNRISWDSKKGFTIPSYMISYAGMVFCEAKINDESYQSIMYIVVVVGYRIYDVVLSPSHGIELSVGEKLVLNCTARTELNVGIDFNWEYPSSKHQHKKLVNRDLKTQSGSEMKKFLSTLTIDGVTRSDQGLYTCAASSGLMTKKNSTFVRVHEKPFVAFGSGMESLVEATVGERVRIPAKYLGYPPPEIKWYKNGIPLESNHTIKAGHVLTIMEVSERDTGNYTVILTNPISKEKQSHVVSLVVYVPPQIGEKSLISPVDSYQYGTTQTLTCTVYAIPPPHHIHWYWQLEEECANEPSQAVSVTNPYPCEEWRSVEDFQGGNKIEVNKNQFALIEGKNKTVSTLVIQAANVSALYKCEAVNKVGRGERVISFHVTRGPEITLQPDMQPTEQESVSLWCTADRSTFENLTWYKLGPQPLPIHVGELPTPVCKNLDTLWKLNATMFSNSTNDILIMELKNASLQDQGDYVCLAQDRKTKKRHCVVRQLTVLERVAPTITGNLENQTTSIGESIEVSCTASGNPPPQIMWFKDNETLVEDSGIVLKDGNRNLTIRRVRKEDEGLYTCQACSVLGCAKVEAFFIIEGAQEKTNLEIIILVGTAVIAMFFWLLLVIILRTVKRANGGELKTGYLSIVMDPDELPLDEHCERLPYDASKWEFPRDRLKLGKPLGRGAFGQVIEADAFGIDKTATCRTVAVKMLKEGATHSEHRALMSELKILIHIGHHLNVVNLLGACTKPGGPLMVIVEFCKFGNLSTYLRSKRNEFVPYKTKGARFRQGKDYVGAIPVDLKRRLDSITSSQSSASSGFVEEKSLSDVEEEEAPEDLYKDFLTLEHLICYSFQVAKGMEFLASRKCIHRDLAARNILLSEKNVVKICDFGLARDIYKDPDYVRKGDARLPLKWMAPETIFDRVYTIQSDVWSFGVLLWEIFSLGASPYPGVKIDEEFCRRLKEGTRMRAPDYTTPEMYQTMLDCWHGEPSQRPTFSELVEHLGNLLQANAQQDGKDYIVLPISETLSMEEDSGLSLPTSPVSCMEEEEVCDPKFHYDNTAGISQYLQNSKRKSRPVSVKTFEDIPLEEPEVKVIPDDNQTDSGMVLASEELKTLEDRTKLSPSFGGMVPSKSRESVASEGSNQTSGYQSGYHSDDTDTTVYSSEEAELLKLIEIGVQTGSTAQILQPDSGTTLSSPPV
Target sequence in this assay (P40337 whole entry): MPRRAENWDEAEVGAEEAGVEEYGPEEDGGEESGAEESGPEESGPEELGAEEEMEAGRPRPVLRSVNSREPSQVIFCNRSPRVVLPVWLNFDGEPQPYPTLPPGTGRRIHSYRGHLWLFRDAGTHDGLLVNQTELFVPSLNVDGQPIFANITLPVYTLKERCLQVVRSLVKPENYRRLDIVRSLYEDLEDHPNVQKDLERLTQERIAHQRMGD

[4] = biological target: T1, von Hippel-Lindau disease tumor suppressor/Vascular endothelial growth factor receptor 2; experiment: PROTAC activity at VHL/VEGFR2 in human HGC-27 cells assessed as induction of VEGFR2 degradation at 1 uM measured after 8 hrs by Western blot analysis relative to control; format: cell-based
Target sequence in this assay (P35968 20-1356 limits assumed): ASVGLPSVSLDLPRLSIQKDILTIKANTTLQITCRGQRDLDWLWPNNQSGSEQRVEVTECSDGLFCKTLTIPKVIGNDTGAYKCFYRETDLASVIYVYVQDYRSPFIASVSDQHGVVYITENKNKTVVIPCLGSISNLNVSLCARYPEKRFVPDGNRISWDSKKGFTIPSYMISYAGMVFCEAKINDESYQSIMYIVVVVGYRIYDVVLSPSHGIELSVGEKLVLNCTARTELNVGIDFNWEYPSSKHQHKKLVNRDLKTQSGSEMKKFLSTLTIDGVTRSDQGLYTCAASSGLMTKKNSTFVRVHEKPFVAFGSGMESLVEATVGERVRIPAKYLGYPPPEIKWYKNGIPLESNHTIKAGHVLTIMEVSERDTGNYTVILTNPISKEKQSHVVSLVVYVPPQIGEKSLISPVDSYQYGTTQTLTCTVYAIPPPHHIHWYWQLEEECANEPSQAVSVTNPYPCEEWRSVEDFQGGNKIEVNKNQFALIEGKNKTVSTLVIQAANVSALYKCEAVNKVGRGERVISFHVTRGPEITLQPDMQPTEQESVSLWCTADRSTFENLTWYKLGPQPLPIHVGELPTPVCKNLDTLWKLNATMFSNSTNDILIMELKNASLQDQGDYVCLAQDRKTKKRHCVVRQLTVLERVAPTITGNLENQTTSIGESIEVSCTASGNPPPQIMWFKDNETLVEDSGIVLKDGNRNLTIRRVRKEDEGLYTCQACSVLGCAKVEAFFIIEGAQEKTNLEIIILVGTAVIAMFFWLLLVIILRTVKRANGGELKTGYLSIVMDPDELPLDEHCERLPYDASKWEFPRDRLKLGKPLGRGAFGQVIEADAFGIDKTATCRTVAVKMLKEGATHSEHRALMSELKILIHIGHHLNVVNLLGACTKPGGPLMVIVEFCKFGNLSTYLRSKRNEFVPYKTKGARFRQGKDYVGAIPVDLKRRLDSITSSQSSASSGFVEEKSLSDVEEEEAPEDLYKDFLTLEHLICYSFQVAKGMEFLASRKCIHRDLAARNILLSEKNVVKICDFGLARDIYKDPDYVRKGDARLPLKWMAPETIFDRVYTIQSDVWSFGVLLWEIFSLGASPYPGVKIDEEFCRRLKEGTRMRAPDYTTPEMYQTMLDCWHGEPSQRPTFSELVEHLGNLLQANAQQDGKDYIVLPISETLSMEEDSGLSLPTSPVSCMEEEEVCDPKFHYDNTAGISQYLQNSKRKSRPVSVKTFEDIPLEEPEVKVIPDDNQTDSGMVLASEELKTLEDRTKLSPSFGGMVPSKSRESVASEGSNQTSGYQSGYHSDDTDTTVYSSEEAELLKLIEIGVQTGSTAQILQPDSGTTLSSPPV
Target sequence in this assay (P40337 whole entry partner): as the sequence (P40337 whole entry) above

HGC-27 [5] = experiment: Induction of cell cycle arrest in human HGC-27 cells assessed as S phase cells at 0.33 uM incubated for 24 hrs by PI staining based flow cytometric analysis (reference value: 26.4%); format: functional
HGC-27 [6] = experiment: Antiinvasive activity in human HGC-27 cells assessed as reduction in number of invasive cells at 0.33 uM incubated for 24 hrs by transwell invasion assay (reference value: 118); format: functional
[7] = biological target: T1, von Hippel-Lindau disease tumor suppressor/Vascular endothelial growth factor receptor 2; experiment: PROTAC activity at VHL/VEGFR2 in human HGC-27 cells assessed as induction of VEGFR2 degradation at 1 uM measured after 24 hrs by Western blot analysis relative to control; format: cell-based
Target sequence in this assay (P35968 20-1356 limits assumed): as the sequence (P35968 20-1356 limits assumed) above
Target sequence in this assay (P40337 whole entry partner): as the sequence (P40337 whole entry) above

HGC-27 [8] = experiment: Induction of cell cycle arrest in human HGC-27 cells assessed as G0/G1 phase cells at 0.1 uM incubated for 24 hrs by PI staining based flow cytometric analysis (reference value: 47.4%); format: functional
HGC-27 [9] = experiment: Antiinvasive activity in human HGC-27 cells assessed as reduction in number of invasive cells at 1 uM incubated for 24 hrs by transwell invasion assay (reference value: 118); format: functional
[10] = biological target: T1, von Hippel-Lindau disease tumor suppressor/Vascular endothelial growth factor receptor 2; experiment: PROTAC activity at VHL/VEGFR2 in human HGC-27 cells assessed as […] at 1 uM measured upto 24 hrs in the presence of cycloheximide by Western blot analysis; format: cell-based
Target sequence in this assay (P35968 20-1356 limits assumed): as the sequence (P35968 20-1356 limits assumed) above
Target sequence in this assay (P40337 whole entry partner): as the sequence (P40337 whole entry) above

HGC-27 [11] = experiment: Inhibition of colony formation in human HGC-27 cells incubated for 8 days by crystal violet staining based analysis; format: functional, cell-based; conditions: dose 0.033-3.33 µM, time 8.0 day
[12] = biological target: T1, von Hippel-Lindau disease tumor suppressor/Vascular endothelial growth factor receptor 2; experiment: PROTAC activity at VHL/VEGFR2 in human HGC-27 cells assessed as residual activity by measuring VEGFR2 expression level at 1 uM incubated for 24 hrs followed by compound washout and measured after 36 hrs by Western blot analysis relative to control; format: cell-based
Target sequence in this assay (P35968 20-1356 limits assumed): as the sequence (P35968 20-1356 limits assumed) above
Target sequence in this assay (P40337 whole entry partner): as the sequence (P40337 whole entry) above

HGC-27 [13] = experiment: Inhibition of colony formation in human HGC-27 cells at 1 to 3.33 uM incubated for 8 days by crystal violet staining based analysis relative to control; format: functional; conditions: dose 1-3.33 µM, time 8 day
[14] = biological target: T1, von Hippel-Lindau disease tumor suppressor/Vascular endothelial growth factor receptor 2; experiment: PROTAC activity at VHL/VEGFR2 in HUVEC cells assessed as reduction in VEGFR2 protein level incubated for 24 hrs by Western blot analysis; format: cell-based
[15] = Cytotoxicity against human GES1 cells assessed as inhibition of cell growth incubated for 72 hrs by MTT assay; format: toxicity, cell-based
HGC-27 [16] = experiment: Induction of apoptosis in human HGC-27 cells assessed as early apoptotic cells at 0.33 uM incubated for 24 hrs by Annexin V-FITC/PI staining based analysis (reference value: 1.7 %); format: functional
[17] = biological target: T1, von Hippel-Lindau disease tumor suppressor/Vascular endothelial growth factor receptor 2; experiment: PROTAC activity at VHL/VEGFR2 in HUVEC cells assessed as reduction in VEGFR2 protein level by measuring maximal efficacy at 0.007 to 10 uM incubated for 24 hrs by Western blot analysis relative to control; format: cell-based; conditions: dose 0.007-10 µM
Target sequence in this assay (P35968 20-1356 limits assumed): as the sequence (P35968 20-1356 limits assumed) above
Target sequence in this assay (P40337 whole entry partner): as the sequence (P40337 whole entry) above

[18] = biological target: T1, von Hippel-Lindau disease tumor suppressor/Vascular endothelial growth factor receptor 2; experiment: PROTAC activity at VHL/VEGFR2 in HUVEC cells assessed as reduction in VEGFR2 protein level at 10 uM incubated for 24 hrs by Western blot analysis; format: cell-based
Target sequence in this assay (P35968 20-1356 limits assumed): as the sequence (P35968 20-1356 limits assumed) above
Target sequence in this assay (P40337 whole entry partner): as the sequence (P40337 whole entry) above

[19] = biological target: T1, von Hippel-Lindau disease tumor suppressor/Vascular endothelial growth factor receptor 2; experiment: PROTAC activity at VHL/VEGFR2 in human HGC-27 cells assessed as induction of VEGFR2 degradation at 1 uM measured after 36 hrs by Western blot analysis relative to control; format: cell-based
HGC-27 [20] = experiment: Induction of cell cycle arrest in human HGC-27 cells assessed as S phase cells at 0.033 uM incubated for 24 hrs by PI staining based flow cytometric analysis (reference value: 26.4%); format: functional
[21] = biological target: T1, von Hippel-Lindau disease tumor suppressor/Vascular endothelial growth factor receptor 2; experiment: PROTAC activity at VHL/VEGFR2 in human HGC-27 cells assessed as residual activity by measuring VEGFR2 expression level at 1 uM incubated for 24 hrs followed by compound washout and measured after 8 hrs by Western blot analysis relative to control; format: cell-based
[22] = biological target: T1, von Hippel-Lindau disease tumor suppressor/Vascular endothelial growth factor receptor 2; experiment: PROTAC activity at VHL/VEGFR2 in human HGC-27 cells assessed as induction of VEGRF2 protein degradation at 1 uM preincubated with MLN4924 for 2 hrs followed by compound addition and measured after 24 hrs by Western blot analysis; format: cell-based
HGC-27 [23] = experiment: Inhibition of cell migration in human HGC-27 cells measured upto 24 hrs by wound healing assay; format: functional, cell-based; conditions: dose 0.033-3.33 µM
HGC-27 [24] = experiment: Antiinvasive activity in human HGC-27 cells assessed as reduction in number of invasive cells at 0.1 uM incubated for 24 hrs by transwell invasion assay (reference value: 118); format: functional
[25] = biological target: T1, von Hippel-Lindau disease tumor suppressor/Vascular endothelial growth factor receptor 2; experiment: PROTAC activity at VHL/VEGFR2 in human HGC-27 cells assessed as residual activity by measuring VEGFR2 expression level at 1 uM incubated for 24 hrs followed by compound washout and measured after 24 hrs by Western blot analysis relative to control; format: cell-based
HGC-27 [26] = experiment: Induction of apoptosis in human HGC-27 cells assessed as necrotic cells at 0.033 uM incubated for 24 hrs by Annexin V-FITC/PI staining based analysis (reference value: 0.65 %); format: functional
[27] = biological target: T1, von Hippel-Lindau disease tumor suppressor/Vascular endothelial growth factor receptor 2; experiment: PROTAC activity at VHL/VEGFR2 in human HGC-27 cells assessed as induction of VEGFR2 degradation at 1 uM measured after 12 hrs by Western blot analysis relative to control; format: cell-based
HGC-27 [28] = experiment: Induction of cell cycle arrest in human HGC-27 cells assessed as G2/M phase cells at 0.1 uM incubated for 24 hrs by PI staining based flow cytometric analysis (reference value: 13.3%); format: functional
HGC-27 [29] = experiment: Induction of cell cycle arrest in human HGC-27 cells assessed as S phase cells at 1 uM incubated for 24 hrs by PI staining based flow cytometric analysis (reference value: 26.4%); format: functional
HGC-27 [30] = experiment: Induction of cell cycle arrest in human HGC-27 cells assessed as G2/M phase cells at 1 uM incubated for 24 hrs by PI staining based flow cytometric analysis (reference value: 13.3%); format: functional
HGC-27 [31] = experiment: Induction of cell cycle arrest in human HGC-27 cells assessed as G2/M phase cells at 3.33 uM incubated for 24 hrs by PI staining based flow cytometric analysis (reference value: 13.3%); format: functional
HGC-27 [32] = experiment: Induction of apoptosis in human HGC-27 cells assessed as early apoptotic cells at 0.033 uM incubated for 24 hrs by Annexin V-FITC/PI staining based analysis (reference value: 1.7 %); format: functional
[33] = Cytotoxicity against HEK293T cells assessed as inhibition of cell growth incubated for 72 hrs by MTT assay; format: toxicity, cell-based, HEK-293T; conditions: human

Compound: Cc1ccc(NC(=O)Cn2cc(-c3ccc4c(NC(=O)c5ccc(NC(=O)CCCCCCCCC(=O)N[C@H](C(=O)N6C[C@H](O)C[C@H]6C(=O)NCc6ccc(-c7scnc7C)cc6)C(C)(C)C)cc5)n[nH]c4c3)cn2)cc1C(F)(F)F
- Activity (HGC-27 [1]): Dose-Dependent Effect
- inhibition (HGC-27 [2]): Tde
- EC50 [3]: 0.084 µM
- Activity [4]: 18.2%
- Activity (HGC-27 [5]): 23.4%
- Activity (HGC-27 [6]): 36
- Activity [7]: 51.4%
- Activity (HGC-27 [8]): 44.3%
- Activity (HGC-27 [9]): 11
- Activity [10]: Active
- inhibition (HGC-27 [11]): Dose-Dependent Effect
- Activity [12]: 131%
- inhibition (INH) (HGC-27 [13]): 100%
- Activity [14]: Dose-Dependent Effect
- EC50 [14]: 0.51 µM
- IC50 at 72 h [15]: 20 µM
- Activity (HGC-27 [16]): 3.2%
- Emax [17]: 76.6%
- Activity [18]: inactive
- Activity [19]: 60.6%
- Activity (HGC-27 [20]): 27.9%
- Activity [21]: 46%
- Activity [22]: inactive
- inhibition (HGC-27 [23]): Dose-Dependent Effect
- Activity (HGC-27 [24]): 100
- Activity [25]: 77%
- Activity (HGC-27 [26]): 0.32%
- Activity [27]: 33.3%
- Activity (HGC-27 [28]): 18.2%
- Activity (HGC-27 [29]): 28.5%
- Activity (HGC-27 [30]): 45.9%
- Activity (HGC-27 [31]): 56.8%
- Activity (HGC-27 [32]): 2%
- IC50 at 72 h [33]: 14.5 µM
